# Source: patent US9365522B2, “Pyrazole amide derivative” (AMGEN INC., priority 2015, dated 2016)
# Target: T1, ligand binding domain of human ROR gamma (Homo sapiens, UniProt P51449)
# T1 construct: NM_001001523; expressed in transfected cells; host or cells: HEK293T
# T1 sequence (P51449 247-497 isoform P51449-2): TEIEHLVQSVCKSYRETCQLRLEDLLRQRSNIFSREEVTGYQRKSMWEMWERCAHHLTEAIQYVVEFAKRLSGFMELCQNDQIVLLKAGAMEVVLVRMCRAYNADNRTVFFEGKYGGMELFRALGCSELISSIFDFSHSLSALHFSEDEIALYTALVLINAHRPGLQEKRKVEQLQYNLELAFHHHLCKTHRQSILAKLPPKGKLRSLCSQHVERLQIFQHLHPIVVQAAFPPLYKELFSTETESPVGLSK
# Assay: ROR gamma reporter gene assay (GAL4-RORγ LBD luciferase, Dual-Glo)
# Type: cell-based
# Details: HEK293T cells transfected with pM-ROR gamma, 8 concentrations 3.5 nM to 10.5 μM, 24 h incubation; read-out: result (pIC50, inhibition of RORγ transcriptional activity) (converted)
# Summary of the method: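 HEK293T cells were co-transfected with GAL4 DBD fused to human RORγ LBD (aa 247-497), a 5×UAS firefly luciferase reporter and CMV-driven renilla luciferase, in medium with 10% charcoal-stripped FBS.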
row,IC50 [pM],Structure (SMILES)
1,50100,"CC1(C)CC[C@@H](N(CC(=O)c2c(Cl)cncc2Cl)C(=O)c2cnn([C@H]3CC[C@H](C(=O)O)CC3)c2C(F)(F)F)C1 [Example 223, trans-4-(4-((2-(3,5-dichloropyridin-4-yl)-2-oxoethyl)-((1R)-3,3-dimethylcyclopentyl)carbamoyl)-5-(trifluoromethyl)pyrazol-1-yl)cyclohexane-1-carboxylic acid]"
2,66100,"CC(C)(C)CN(CC(=O)c1c(F)cccc1Cl)C(=O)c1cnn([C@H]2CC[C@](C)(C(=O)O)CC2)c1C(F)(F)F [Example 297, trans-4-(4-((2-(2-chloro-6-fluorophenyl)-2-oxoethyl)-(2,2-dimethylpropyl)carbamoyl)-5-(trifluoromethyl)pyrazol-1-yl)-1-methylcyclohexane-1-carboxylic acid]"
3,20000,"COc1cccc(Cl)c1C(=O)CN(CC1CC(C)(C)C1)C(=O)c1cnn(C23CCC(C(=O)O)(CC2)CC3)c1C(F)(F)F [Example 257, 4-(4-((2-(2-chloro-6-methoxyphenyl)-2-oxoethyl)-((3,3-dimethylcyclobutyl)methyl)carbamoyl)-5-(trifluoromethyl)pyrazol-1-yl)bicyclo[2.2.2]octane-1-carboxylic acid]"
4,263000,"COC(C)(C)CN(CC(=O)c1c(Cl)cncc1Cl)C(=O)c1cnn([C@H]2CC[C@H](C(=O)O)CC2)c1C(F)(F)F [Example 74, trans-4-(4-((2-(3,5-dichloropyridin-4-yl)-2-oxoethyl)(2-methoxy-2-methylpropyl)carbamoyl)-5-(trifluoromethyl)-1H-pyrazol-1-yl)cyclohexanecarboxylic acid]"
5,331000,"CC1(C)[C@@H]2C[C@H](N(C[C@H](O)c3ncccc3Cl)C(=O)c3cnn([C@H]4CC[C@](C)(C(=O)O)CC4)c3C(F)(F)F)C[C@@H]21 [Example 390, trans-4-(4-((2-(3-chloropyridin-2-yl)-2-hydroxyethyl)((1R,3r,5S)-6,6-dimethylbicyclo[3.1.0]hexan-3-yl)carbamoyl)-5-(trifluoromethyl)-1H-pyrazol-1-yl)-1-methylcyclohexanecarboxylic acid]"
6,10000,"COc1cccc(Cl)c1C(=O)CN(CC1CC(C)(C)C1)C(=O)c1cnn([C@H]2CC[C@](C)(C(=O)O)CC2)c1C(F)(F)F [Example 252, trans-4-(4-((2-(2-chloro-6-methoxyphenyl)-2-oxoethyl)-((3,3-dimethylcyclobutyl)methyl)carbamoyl)-5-(trifluoromethyl)pyrazol-1-yl)-1-methylcyclohexane-1-carboxylic acid]"
7,1.58e+06,"CC(C)(C)OC1CC(CN(CC(=O)c2c(Cl)cncc2Cl)C(=O)c2cnn([C@H]3CC[C@](C)(C(=O)O)CC3)c2C(F)(F)F)C1 (stereo partly drawn) [Example 344, trans-4-(4-((2-(3,5-dichloropyridin-4-yl)-2-oxoethyl)-((3-((2-methylpropan-2-yl)oxy)cyclobutyl)methyl)carbamoyl)-5-(trifluoromethyl)pyrazol-1-yl)-1-methylcyclohexane-1-carboxylic acid]"
8,4.57e+06,"COc1cccc(O)c1C(=O)CN(Cc1cc(F)cc(F)c1)C(=O)c1cnn([C@H]2CC[C@H](C(=O)O)CC2)c1C(F)(F)F [Example 7, trans-4-(4-((3,5-difluorobenzyl)(2-(2-hydroxy-6-methoxyphenyl)-2-oxoethyl)carbamoyl)-5-(trifluoromethyl)-1H-pyrazol-1-yl)cyclohexanecarboxylic acid]"
9,174000,"CC1(C)CC[C@H](N(CC(=O)c2c(Cl)cncc2Cl)C(=O)c2cnn([C@H]3CC[C@H](C(=O)O)CC3)c2C(F)(F)F)C1 [Example 183, trans-4-(4-((2-(3,5-dichloropyridin-4-yl)-2-oxoethyl)-((1S)-3,3-dimethylcyclopentyl)carbamoyl)-5-(trifluoromethyl)pyrazol-1-yl)cyclohexane-1-carboxylic acid]"

# Target: T2, human RORγ-LBD (Homo sapiens, UniProt P51449)
# T2 construct: made in house; host or cells: E. coli (BL-21)
# T2 sequence (P51449 262-518): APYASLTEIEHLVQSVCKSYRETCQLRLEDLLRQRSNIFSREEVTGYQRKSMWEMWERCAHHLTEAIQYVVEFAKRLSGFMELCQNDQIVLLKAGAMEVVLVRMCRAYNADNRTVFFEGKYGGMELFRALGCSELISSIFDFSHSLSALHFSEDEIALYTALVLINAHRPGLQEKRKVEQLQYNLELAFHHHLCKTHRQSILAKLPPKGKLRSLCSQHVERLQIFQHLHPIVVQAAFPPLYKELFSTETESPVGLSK
# Assay: ROR gamma coactivator peptide recruitment Alphascreen assay (RORγ-LBD binding to GRIP1 coactivator peptide)
# Type: biochemical
# Details: 5 nM human RORγ-LBD, 30 nM 7-β-hydroxycholesterol, 50 nM biotinylated GRIP1 coactivator peptide, overnight incubation at room temperature; read-out: result (pIC50, RORγ coactivator peptide recruitment Alphascreen assay) (converted)
# Text: Alphascreen™ is a bead-based amplified homogenous luminescent proximity assay that can be used for measuring the effect of compounds on protein-protein interactions. When biological interactions bring donor and acceptor beads into close proximity, reactive oxygen, generated upon laser excitation of the donor beads, initiates a luminescence/fluorescence cascade in the acceptor beads that leads to a highly amplified signal that can be measured as light in the 520-620 nm range. When the acceptor and donor beads are not in proximity, the reactive oxygen decays and only a very low background signal is generated.
# An in vitro assay to assess inhibition of RORγ binding to the coactivator GRIP1 was established using Alphascreen™ technology. The interaction between nuclear receptors (NR) and coactivator proteins is a key step in signal transduction from the receptor to the transcriptional machinery and can be measured in vitro using only the ligand binding domain of the nuclear receptor and a peptide containing a coactivator protein LXXLL nuclear receptor binding motif
# For the RORγ construct used in the coactivator recruitment assay, nucleotides corresponding to the ligand binding domain (LBD) of wild type human RORγ (amino acids 262-518 of Genbank Accession No. NM_005060.3) were cloned into the pET24 expression vector (Novagen), downstream of in-frame N-terminal 6×His and Flag tag sequences. Recombinant 6×His:Flag-tagged human RORγ-LBD protein was expressed in E. coli (BL-21) and purified by affinity chromatography on a nickel Sepharose column, followed by anion exchange chromatography.
# A 4× assay mixture of 6×His:Flag-tagged human RORγ-LBD with the agonist ligand 7-β-hydroxycholesterol was prepared in assay buffer (50 mM HEPES pH 7.4, BSA 0.05%, 150 mM NaCl, 5 mM MgCl2, 1 mM DTT, 0.01% Tween-20). For control wells a 4× mixture of 6×His:Flag-tagged human ROR gamma LBD alone was also prepared.
# A 4× stock of biotinylated coactivator peptide containing the LXXLL motif from GRIP1 (Biotin-[…]) was prepared in assay buffer.
# A 4×detection mixture of nickel chelate Alphascreen™ acceptor beads (PerkinElmer) and streptavidin Alphascreen™ donor beads (PerkinElmer) was prepared in assay buffer.
# Compounds to be tested were arranged in a pre-dose 384-well mother plate serially diluted 1 in 2 over 22 columns, in 100% DMSO, at 40× the final test concentration, from a high concentration of 4 mM. DMSO with no compound was placed in control columns. The compounds were robotically dispensed directly into assay plates containing assay buffer to a 4× final test concentration.
# Following compound addition, the 6×His:Flag-tagged human RORγ-LBD plus 7-β-hydroxycholesterol assay mixture, biotinylated coactivator peptide and detection mixture were added. Final assay conditions were 5 nM 6×His:Flag-tagged human RORγ-LBD, 30 nM 7-β-hydroxycholesterol, 50 nM biotinylated coactivator peptide, 2.5 ug/ml nickel acceptor beads and 10 ug/ml streptavidin donor beads. The final concentration of DMSO in the assay was 2.5%.
# After overnight incubation at room temperature plates were read on and Envision™ plate reader (PerkinElmer).
# Data was plotted and pIC50 values were calculated using the Genedata Screener™ data analysis suite (Genedata).
row,IC50 [nM],Structure (SMILES)
1,5.75,C[C@@H]1C[C@@H](n2ncc(C(=O)N(CC(=O)c3c(Cl)cncc3Cl)CC(C)(C)C)c2C(F)(F)F)CC[C@@H]1C(=O)O [Example 739]
2,32.4,"O=C(c1cnn([C@H]2CC[C@H](C(=O)O)CC2)c1C(F)(F)F)N(CCc1c[nH]c2ccccc12)Cc1ccc(Cl)cc1 [Example 507, trans-4-(4-((4-chlorobenzyl)(2-(1H-indol-3-yl)ethyl)carbamoyl)-5-(trifluoromethyl)-1H-pyrazol-1-yl)cyclohexanecarboxylic acid]"
3,51.3,"CO[C@H](CN(CC(C)(C)C)C(=O)c1cnn([C@H]2CC[C@H](C(=O)O)CC2)c1C(F)(F)F)c1c(Cl)cc(C)cc1Cl [Example 530, trans-4-(4-(((2S)-2-(2,6-dichloro-4-methylphenyl)-2-methoxyethyl)(2,2-dimethylpropyl)carbamoyl)-5-(trifluoromethyl)-1H-pyrazol-1-yl)cyclohexanecarboxylic acid]"
4,30.9,"CC(C)(C)CN(CC(=O)c1c(Cl)cncc1Cl)C(=O)c1cnn([C@H]2C[C@]3(C[C@H](C(=O)O)C3)C2)c1C(F)(F)F (some centres unmarked) [Example 836, (4R/S)-6-(4-((2-(3,5-dichloro-4-pyridinyl)-2-oxoethyl)(2,2-dimethylpropyl)carbamoyl)-5-(trifluoromethyl)-1H-pyrazol-1-yl)spiro[3.3]heptane-2-carboxylic acid]"
5,2.4,"CC1(C)CC(CN(CCc2c(Cl)cncc2Cl)C(=O)c2cnn([C@H]3CC[C@](C)(C(=O)O)CC3)c2C(F)(F)F)C1 [Example 556, trans-4-(4-((2-(3,5-dichloro-4-pyridinyl)ethyl)((3,3-dimethylcyclobutyl)methyl)carbamoyl)-5-(trifluoromethyl)-1H-pyrazol-1-yl)-1-methylcyclohexanecarboxylic acid]"
6,275,"O=C(c1cnn([C@H]2CC[C@H](C(=O)O)CC2)c1C(F)(F)F)N(CCc1ccccc1)Cc1ccc(Cl)cc1 [Example 502, trans-4-(4-((4-chlorobenzyl)(2-phenylethyl)carbamoyl)-5-(trifluoromethyl)-1H-pyrazol-1-yl)cyclohexanecarboxylic acid]"
7,4.07,"CC1(C)CC(CN(CC(=O)c2c(Cl)cccc2Cl)C(=O)c2cnn([C@H]3C[C@@H](CC(=O)O)C3)c2C(F)(F)F)C1 [Example 669, (cis-3-(4-((2-(2,6-dichlorophenyl)-2-oxoethyl)((3,3-dimethylcyclobutyl)methyl)carbamoyl) 5-(trifluoromethyl)-1H-pyrazol-1-yl)cyclobutyl)acetic acid]"
8,18.2,"Cc1cc(Cl)c(C(=O)CN(CCOC(C)(C)C)C(=O)c2cnn([C@H]3CC[C@](C)(C(=O)O)CC3)c2C(F)(F)F)c(Cl)n1 [Example 779, trans-4-(4-((2-(2,4-dichloro-6-methyl-3-pyridinyl)-2-oxoethyl)(2-((2-methyl-2-propanyl)oxy)ethyl)carbamoyl)-5-(trifluoromethyl)-1H-pyrazol-1-yl)-1-methylcyclohexanecarboxylic acid]"
